# Patent publication US20210309669A1, “Heterocyclic Spiro Compounds As MAGL Inhibitors” (Pfizer Inc., priority 2018, published 2021)
# What was measured:
# [1] = In vitro intrinsic clearance in human hepatocytes; type: in vitro ADME; settings: 1 μM substrate, human hepatocytes 0.5 million viable cells per mL, 37° C.
# Protocol: Test Compounds (Example 1-3 and Comparative-Compounds 1-4) were prepared as solutions in DMSO at 3 mM which were then diluted in media containing WEM. The final concentration of DMSO in the incubation was 0.03% (v/v). The in vitro half-life (t½) of each compound was determined in incubations containing substrate (1 μM), human hepatocytes (0.5 million viable cells per mL final concentration) in media containing WEM, 50 mM HEPES buffer (pH 7.4), and 26 mM sodium bicarbonate at 37° C. (all final concentrations) in a 96-well plate. The reaction mixture was pre-warmed at 37° C. for 30 min prior to the initiation of the incubation. The incubation was quenched with acetonitrile containing internal standards at the following time points: 0, 5, 15, 30, 60, 120, and 240 min (individual incubation plates per time point). The samples were vortexed followed by centrifugation. An aliquot of supernatant was transferred to a clean 96-well plate and analyzed by LC/MS-MS using multiple reaction monitoring. For control experiments, hepatocytes were omitted from the incubations.
# The hepatocyte t½ (min) was obtained from a log-linear plot of the substrate depletion versus incubation time and was scaled to hepatic intrinsic clearance (CLint,app (μL/min/million cells) using the following equation: […]
# [2] = Dog intravenous pharmacokinetic study; type: in vivo, Male beagle dogs; settings: male, beagle, IV dose of 1 mg/kg, plasma, read-out: Dog t1/2 (converted)
# Protocol: The pharmacokinetic studies in dog were conducted at Pfizer Global Research and Development (Groton, Conn.). All in vivo studies were conducted in accordance with regulations and established guidelines using protocols reviewed and approved by the Pfizer Worldwide Research and Development (WRD, or other) Institutional Animal Care and Use Committee.
# Male beagle dogs were fasted overnight with water provided ad libitium. The dogs were fed at approximately 2-4 h post-dose. The dogs (n=2) were administered an IV bolus via the cephalic vein. Compounds of Examples 1-3 were tested along with the following four comparative compounds.
# All test compounds were administered an IV dose of 1 mg/kg of the specified compound which was delivered in a dose volume of 0.5 mL/kg. The dose solution was formulated in 10% PEG400/90% of 23% (w/v) HPBCD in de-ionized water for the following test compounds: Example 1, Example 2, and Example 3; in 20% SBECD (sulfobutyl either β-cyclodextrin) for Comparative-Compound 3; in 23% (w/v) HPBCD (hydroxypropyl β-cyclodextrin) in water for Comparative Compound 2; in 12.5.% SBECD in water with 0.25% 0.1N HCl to pH 5 for Comparative Compound 1. Serial blood samples were collected from each dog via the jugular vein prior to dose administration and at the following time points post-dose: 0.083, 0.25, 0.5, 1, 2, 4, 7, and 24 h for all compounds with an additional time point of 0.016 h collected for Comparative Compound 1 only. Blood samples were collected into tubes containing EDTA and placed on wet ice. Following centrifugation to afford plasma, the samples were transferred to polypropylene tubes and stored frozen at −20° C. to −80° C. until analysis.
# All plasma samples were quantified via liquid chromatography/tandem mass spectrometry (LC/MS-MS) using multiple reaction monitoring with non-validated methods. The plasma standard curves were generated with species specific plasma. Pharmacokinetic parameters were determined by non-compartmental analysis using Watson LIMS software version 7.4 (Thermo Fisher Scientific, Waltham, Mass.). The area under the concentration versus time curve (AUC) was calculated from the first time point to the last time point with measurable drug concentration using a linear trapezoidal rule. The area under the concentration versus time curve from the first time point to time infinity (AUC(0-inf)) was calculated by extrapolation from the time point where the last measurable concentration occurred to time infinity by dividing the observed concentration at the last time point by the elimination rate constant determined using linear regression of plasma concentration versus time data. The plasma clearance (CLp) was calculated by the equation CLp=dose/AUC(0-inf). The elimination half-life (t½) was calculated using the following equation t1/2=ln 2/k; k is equal to the rate constant of elimination calculated by the least squares of the log transformed data.
# [3] = In vitro intrinsic clearance in human liver microsomes (HLM); type: in vitro ADME; settings: pH 7.4, 1 μM substrate, NADPH, 37° C., read-out: HLM CLint, app
# Protocol: Test Compounds (Example 1-3 and Comparative-Compounds 1-4) were prepared as solutions in DMSO. The final concentration of DMSO in the incubation was <0.1% (v/v). […] (all final concentrations) in a 384-well plate. The reaction mixture was pre-warmed at 37° C. for 10 min prior to initiation of the incubation. The incubation was quenched with acetonitrile containing internal standards at the following time points: 1, 4, 7, 12, 20, 25, 45, and 60 min (individual incubation plates per time point) with a subsequent addition of water. The samples were vortexed followed by centrifugation and the supernatant was analyzed by LC/MS-MS using multiple reaction monitoring. For control experiments, NADPH was omitted from the incubations.
# The microsomal t½ (min) was obtained from a log-linear plot of the substrate depletion versus incubation time and was scaled to hepatic intrinsic clearance (CLint,app (μL/min/mg protein) using the following equation: […]
compound,measurement,setting,value
"O=C(OC(C(F)(F)F)C(F)(F)F)N1CCC2(CC1)C[C@@H](NS(=O)(=O)CC1CC1)CO2 [Example 1, 1,1,1,3,3,3-Hexafluoropropan-2-yl (3R)-3-{[(cyclopropylmethyl)sulfonyl]amino}-1-oxa-8-azaspiro[4.5]decane-8-carboxylate]","HHEPs CLint, app",[1],<4.26 μL/min/million
same,half-life,[2],16.9 h
same,microsomal CLint at 1 μM,[3],< 8 µL/min/mg
"O=C(OC(C(F)(F)F)C(F)(F)F)N1CCC2(CCC(NS(=O)(=O)CC3CC3)CO2)CC1 (stereo not drawn) [Example 3, 1,1,1,3,3,3-Hexafluoropropan-2-yl 3-{[(cyclopropylmethyl)sulfonyl]amino}-1-oxa-9-azaspiro[5.5]undecane-9-carboxylate]","HHEPs CLint, app",[1],<3.57 μL/min/million
same,half-life,[2],26.3 h
same,microsomal CLint at 1 μM,[3],< 8 µL/min/mg
"O=C(OC(C(F)(F)F)C(F)(F)F)N1CCC2(CC1)C[C@@H](NS(=O)(=O)C1CC1)CO2 [Example 2, 1,1,1,3,3,3-Hexafluoropropan-2-yl (3R)-3-[(cyclopropylsulfonyl)amino]-1-oxa-8-azaspiro[4.5]decane-8-carboxylate]","HHEPs CLint, app",[1],3.46 μL/min/million
same,half-life,[2],40.7 h
same,microsomal CLint at 1 μM,[3],< 8 µL/min/mg
